Laboratory results published in publication PMC3501554 (Drug and alcohol dependence, 2012).

Assays:
[1] = test system: C57BL/6J mice; assay: Observable effects; format: in vivo; settings: Rimonabant (3 mg/kg s.c., 10 min before) / 50 mg placebo smoke
[2] = following inhalation of 200 mg incinerated marijuana; ref Wilson et al., 2006; cited from earlier work

## Cc1c(C(=O)NN2CCCCC2)nn(-c2ccc(Cl)cc2Cl)c1-c1ccc(Cl)cc1 [Rimonabant]
[1]
  Hyperreflexia, percentage of mice showing presence of observable effect: 0%
  Ptosis, percentage of mice showing presence of observable effect: 0%
  Straub Tail, percentage of mice showing presence of observable effect: 0%

## CCCCCc1cc(O)c2c(c1)OC(C)(C)[C@@H]1CCC(C)=C[C@@H]21 [THC, Δ^9-tetrahydrocannabinol]
[2]
  Brain concentration of THC: 433 ± 66 ng/g
